Tests used:
[1] = system: damping-off fungus (Rhizoctonia solani); test: Test Example 16: soybean seed smearing treatment, damping-off pot test (Table 5); format: in vivo; conditions: soybean seeds, 20 days after
Method: (§1) If the effect by the combination of two active ingredients is greater than that of the estimated value E, which is calculated by the Colby's equation as follows, the effect is regarded as synergistic. E=X+Y−X·Y/100 wherein, E=Control value when using the mixture of the active ingredients A and B at the concentrations m and n (amount of the active ingredient), respectively.
(§2) X=Control value when using the active ingredient A at the concentration m (amount of the active ingredient).
(§3) Y=Control value when using the active ingredient B at the concentration n (amount of the active ingredient).
In a rotary seed treatment machine (trade name: HEGE11, manufactured by WINTERSTEIGER), soybean seeds (variety:“Hatayutaka”) were treated by smearing treatment using azoxystrobin flowable formulation (25% flowable formulation, trade name: Amistar, Syngenta), trifloxystrobin flowable formulation (25% flowable formulation, trade name: FLINT, Bayer CropScience), a chemical liquid prepared by diluting picoxystrobin in acetone/Tween 20 (weight ratio=95:5) and diluting with water, a chemical liquid prepared by dissolving mandestrobin in acetone/Tween 20 (weight ratio=95:5) and diluting with water, and the flowable formulation obtained of the present bacterial strain in Formulation Example 16, so that the soybean seeds retain the bacteria and the compound in the amount shown in Table 5.
Cultivation was carried out in a greenhouse under irrigation. Also, similar procedures were conducted using untreated soybean seeds, instead of the treated soybean seeds, as described above for the treated compartment (“untreated compartment”). The plants were investigated 20 days after for the number of diseased plants, and the disease incidence was calculated by the following “Equation 1”. The control value of the treated compartment was calculated by the following equation “Equation 2”, based on the disease incidences of the treated compartment and the untreated compartment. Disease incidence (%)=100×(number of diseased plant/total number of seeded seeds): Equation 1 Control value (%)=100×[(disease incidence in untreated compartment−disease incidence in treated compartment)/disease incidence in untreated compartment]: Equation 2

[2] = system: damping-off fungus (Fusarium spp.); test: Test Example 15: corn seed smearing treatment, damping-off pot test (Table 4); format: in vivo; conditions: corn seeds, 20 days after
Method: In a rotary seed treatment machine (trade name: HEGE11, manufactured by WINTERSTEIGER), corn seeds (variety: yellow dent corn) were treated by smearing treatment using pyraclostrobin flowable formulation (20% wettable granules, trade name: Comet, BASF. Corporation), a chemical liquid prepared by dissolving fluoxastrobin in acetone/Tween 20 (weight ratio=95:5) and diluting with water, and the flowable formulation of the present bacterial strain obtained in Formulation Example 16, respectively, so that the corn seeds retain the present bacterial strain and the compound in the amount shown in Table 4.
Cultivation was carried out in a greenhouse under irrigation. Also, similar procedures were conducted using untreated corn seeds, instead of the treated corn seeds, as described above for the treated compartment (“untreated compartment”). The plants were investigated 20 days after for the number of diseased plants, and the disease incidence was calculated by the following “Equation 1”. The control value of the treated compartment was calculated by the following equation “Equation 2”, based on the disease incidences of the treated compartment and the untreated compartment. Disease incidence (%)=100×(number of diseased plant/total number of seeded seeds): Equation 1 Control value (%)=100×[(disease incidence in […] in treated compartment)/disease incidence in untreated compartment]: Equation 2
as §1, §2, §3

SMILES	Controlling Effect (control value) ([1]; 0.01 g/Kg seeds) [%]	Controlling Effect (control value) ([1]; 0.05 g/Kg seeds) [%]	Controlling Effect (control value) ([2]; 0.05 g/Kg seeds) [%]	Controlling Effect (control value) ([2]; 0.1 g/Kg seeds) [%]	Controlling Effect (control value) ([1]; 0.002 g/Kg seeds) [%]	also measured
CO/C=C(/C(=O)OC)c1ccccc1Oc1cc(Oc2ccccc2C#N)ncn1 [Azoxystrobin]	29.5					Controlling Effect (control value) ([1]; 0.005 g/Kg seeds): 15.9%; Controlling Effect (control value) ([1]; 0.02 g/Kg seeds): 38.6%
CNC(=O)C(OC)c1ccccc1COc1cc(C)ccc1C (stereo not drawn) [Mandestrobin]		36.4				Controlling Effect (control value) ([1]; 0.025 g/Kg seeds): 25.0%; Controlling Effect (control value) ([1]; 0.1 g/Kg seeds): 47.7%
CO/N=C(/C1=NOCCO1)c1ccccc1Oc1ncnc(Oc2ccccc2Cl)c1F [Fluoxastrobin]			14.0	30.2		Controlling Effect (control value) ([2]; 0.2 g/Kg seeds): 41.9%
CO/C=C(/C(=O)OC)c1ccccc1COc1cccc(C(F)(F)F)n1 [Picoxystrobin]	27.3	38.6			18.2	
COC(=O)N(OC)c1ccccc1COc1ccn(-c2ccc(Cl)cc2)n1 [Pyraclostrobin]			25.6	37.2		Controlling Effect (control value) ([2]; 0.025 g/Kg seeds): 18.6%
CON=C(C(=O)OC)c1ccccc1CON=C(C)c1cccc(C(F)(F)F)c1 [Trifloxystrobin]	31.8	40.9			20.5	

From patent US10575528B2, “Plant disease control composition and plant disease control method” (SUMITOMO CHEMICAL COMPANY, LIMITED, priority 2015, dated 2020)
